Test results published in US20080220445A1, “Method of Screening Transmembrane Enzyme Inhibitory Substance” (TAKEDA PHARMACEUTICAL COMPANY LIMITED, priority 2004, published 2008).

What was measured:
[1] = biological target: T1, BACE1-501 (Homo sapiens, UniProt P56817); experiment: Detection of binding by surface plasmon resonance (Biacore3000); details: PBS containing 10% DMSO and 0.005% Surfactant P20
T1 construct: Expression of full-length β-secretase protein (BACE1-501) was performed with FreeStyle 293 Expression System; made in house; host or cells: FreeStyle 293-F cells (HEK293)
Source text: Biacore3000 (Biacore) was used for analysis by surface plasmon resonance. BACE1-501 and the recombinant human BACE-1 (amino acid residue 1-460) were immobilized to carboxyl groups on CM5 sensorchip (carboxymethylated dextran matrix chip) activated with N-hydrosuccinimide (NHS)/N-ethyl-N′-(3-dimethyl-aminopropyl)-carbodiimide hydrochloride (EDC) in acetate buffer at pH 4.5. BACE1-454 and BACE1-474 were immobilized by the same way in acetate buffer at pH 4.0. The binding of the compound and the enzymes was measured in PBS containing 10% DMSO and 0.005% Surfactant P20. The correction of the difference of Resonance Unit (RU) value among flow cells resulting from the bulk effect was carried out with a correction curve made using the buffers with the DMSO concentration varied from 9% to 11% in the five-graded. As a result, signals showing the binding of each compound to BACE1-501 and BACE1-474 were observed. On the other hand, for BACE1-454 and the recombinant human BACE-1 (amino acid residue 1-460), no signal was observed showing the binding.

[2] = biological target: T2, BACE1-465 (Homo sapiens, UniProt P56817); experiment: Inhibitory action on BACE1-465, fluorescence-quenched peptide substrate; type: biochemical; details: final concentration: 10 μM; 37° C. for 22 hr; pH5.5
T2 construct: made in house; host or cells: FreeStyle 293-F cells (HEK293), culture supernatant
Procedure: (§1) To 96 black well plate, 25 μl of 0.05M acetate buffer (pH5.5), 10 μl of 250 μM substrate (Nma-Ser-Glu-Val-Lys-Met-Asp-Ala-Glu-Lys(Dnp)-Arg-Arg-NH2; SEQ ID NO: 11), 10 μl of BACE1-471 (0.05 mg/ml) or BACE1-465 (0.04 mg/ml) obtained from the above-mentioned Reference Example 7, and 5 μl of 0.1 mM Compound A in 10% DMSO solution, and as a control, 5 μl of 10% DMSO were added respectively, and allowed to be reacted at 37° C. for 50 hr for BACE1-471 and for 22 hr for BACE1-465. After completion of the reaction, the fluorescence intensity (excitation wavelength at 325 nm, measurement wavelength at 460 nm) was measured with Fluoroscan ASCENT.

[3] = biological target: T3, BACE1-474 (extracellular domain and transmembrane domain of β-secretase) (Homo sapiens, UniProt P56817); experiment: Inhibitory action on BACE protein, fluorescence-quenched peptide substrate; type: biochemical; details: final concentration: 10 μM; 37° C. for 63 hr; pH 5.5; read-out: inhibition rates on BACE1-474
T3 construct: made in house; host or cells: FreeStyle 293-F cells (HEK293)
Procedure: (§2) To 96 black well plate, 25 μl of 0.05 M acetate buffer (pH 5.5), 10 μl of 250 μM substrate (Nma-Ser-Glu-Val-Lys-Met-Asp-Ala-Glu-Lys(Dnp)-Arg-Arg-NH2; SEQ ID NO: 11), 10 μl of BACE1-474 (0.02 mg/ml) or BACE1-454 (0.01 mg/ml) obtained from the above-mentioned Reference Example 5 or a recombinant human BACE-1 (amino acid residues 1-460, R & D Systems) (0.025 mg/ml) commercially available as an extracellular domain, and 5 μl of each compound in 10% DMSO solution, and as a control, 5 μl of 10% DMSO were added respectively, and allowed to be reacted at 37° C. for 63 hr. After completion of the reaction, the fluorescence intensity (excitation wavelength at 325 nm, measurement wavelength at 460 nm) was measured with Fluoroscan ASCENT.

[4] = biological target: T4, BACE1-454 (extracellular domain of β-secretase) (Homo sapiens, UniProt P56817); experiment: as above; type: biochemical; details: final concentration: 10 μM; 37° C. for 63 hr; pH 5.5
T4 construct: made in house; host or cells: FreeStyle 293-F cells (HEK293), culture supernatant
Procedure: as §2

[5] = biological target: T5, recombinant human BACE-1 (amino acid residues 1-460, R & D Systems) (Homo sapiens, UniProt P56817); experiment: as above; type: biochemical; details: final concentration: 10 μM; 37° C. for 63 hr; pH 5.5
T5 construct: a recombinant human BACE-1 (amino acid residues 1-460, R & D Systems); purchased R & D Systems
Procedure: as §2

[6] = biological target: T6, BACE1-471 (Homo sapiens, UniProt P56817); experiment: Inhibitory action on BACE1-471, fluorescence-quenched peptide substrate; type: biochemical; details: pH 5.5; final concentration: 10 μM; 37° C. for 50 hr; pH5.5; read-out: inhibition rates on BACE1-471
T6 construct: made in house; host or cells: FreeStyle 293-F cells (HEK293)
Procedure: as §1

T3 sequence (P56817 with tags, fused parts or gaps): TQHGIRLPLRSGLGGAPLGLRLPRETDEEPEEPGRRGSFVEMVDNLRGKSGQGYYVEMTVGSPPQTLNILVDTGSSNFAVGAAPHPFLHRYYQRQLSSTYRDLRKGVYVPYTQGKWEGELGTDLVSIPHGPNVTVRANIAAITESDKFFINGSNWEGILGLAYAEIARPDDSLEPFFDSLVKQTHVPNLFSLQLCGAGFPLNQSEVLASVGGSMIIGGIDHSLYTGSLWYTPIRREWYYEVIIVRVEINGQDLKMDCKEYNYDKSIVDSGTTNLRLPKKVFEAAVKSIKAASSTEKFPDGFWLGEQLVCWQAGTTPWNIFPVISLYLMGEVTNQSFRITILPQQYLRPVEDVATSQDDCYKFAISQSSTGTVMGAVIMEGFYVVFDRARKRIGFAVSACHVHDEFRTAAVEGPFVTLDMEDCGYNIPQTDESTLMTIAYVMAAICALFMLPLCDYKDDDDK
T4 sequence (P56817 with tags, fused parts or gaps): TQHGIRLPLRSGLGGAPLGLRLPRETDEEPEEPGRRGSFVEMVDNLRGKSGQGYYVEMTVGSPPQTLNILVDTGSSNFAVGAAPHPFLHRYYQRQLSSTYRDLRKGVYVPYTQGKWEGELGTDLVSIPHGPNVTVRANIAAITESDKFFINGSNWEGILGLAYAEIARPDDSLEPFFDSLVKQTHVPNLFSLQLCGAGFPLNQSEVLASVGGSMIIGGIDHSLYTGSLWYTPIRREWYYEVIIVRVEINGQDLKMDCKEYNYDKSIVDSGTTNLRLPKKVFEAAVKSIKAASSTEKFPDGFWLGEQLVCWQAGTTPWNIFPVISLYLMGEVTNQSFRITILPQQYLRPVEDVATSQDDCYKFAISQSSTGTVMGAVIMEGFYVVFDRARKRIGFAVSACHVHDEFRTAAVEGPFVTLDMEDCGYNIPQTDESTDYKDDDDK
T5 sequence (P56817 22-460): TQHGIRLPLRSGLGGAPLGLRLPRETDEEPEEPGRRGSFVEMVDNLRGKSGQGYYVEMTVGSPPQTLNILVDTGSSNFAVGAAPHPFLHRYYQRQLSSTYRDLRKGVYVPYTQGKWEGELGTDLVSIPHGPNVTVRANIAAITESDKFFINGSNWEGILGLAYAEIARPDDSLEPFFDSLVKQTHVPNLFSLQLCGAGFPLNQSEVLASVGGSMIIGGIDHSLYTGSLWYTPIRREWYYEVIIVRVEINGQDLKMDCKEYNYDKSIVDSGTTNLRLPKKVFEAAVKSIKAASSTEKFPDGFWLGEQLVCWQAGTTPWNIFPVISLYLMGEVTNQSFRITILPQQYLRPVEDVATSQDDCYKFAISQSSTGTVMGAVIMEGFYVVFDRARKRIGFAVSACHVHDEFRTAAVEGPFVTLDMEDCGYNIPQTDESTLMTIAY
T6 sequence (P56817 with tags, fused parts or gaps): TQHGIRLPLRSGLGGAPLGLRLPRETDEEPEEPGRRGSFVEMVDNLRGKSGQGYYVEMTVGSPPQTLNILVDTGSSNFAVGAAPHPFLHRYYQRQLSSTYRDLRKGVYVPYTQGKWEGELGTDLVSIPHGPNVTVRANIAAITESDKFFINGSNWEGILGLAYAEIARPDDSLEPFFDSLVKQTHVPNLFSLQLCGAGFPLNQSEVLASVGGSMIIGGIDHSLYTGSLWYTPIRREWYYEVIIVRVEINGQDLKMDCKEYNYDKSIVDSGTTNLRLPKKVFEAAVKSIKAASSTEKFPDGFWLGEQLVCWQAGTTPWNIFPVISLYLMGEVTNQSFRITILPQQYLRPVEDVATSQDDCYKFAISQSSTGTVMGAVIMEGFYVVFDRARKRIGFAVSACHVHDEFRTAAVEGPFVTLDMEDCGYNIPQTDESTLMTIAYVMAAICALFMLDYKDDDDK
T2 sequence (P56817 with tags, fused parts or gaps): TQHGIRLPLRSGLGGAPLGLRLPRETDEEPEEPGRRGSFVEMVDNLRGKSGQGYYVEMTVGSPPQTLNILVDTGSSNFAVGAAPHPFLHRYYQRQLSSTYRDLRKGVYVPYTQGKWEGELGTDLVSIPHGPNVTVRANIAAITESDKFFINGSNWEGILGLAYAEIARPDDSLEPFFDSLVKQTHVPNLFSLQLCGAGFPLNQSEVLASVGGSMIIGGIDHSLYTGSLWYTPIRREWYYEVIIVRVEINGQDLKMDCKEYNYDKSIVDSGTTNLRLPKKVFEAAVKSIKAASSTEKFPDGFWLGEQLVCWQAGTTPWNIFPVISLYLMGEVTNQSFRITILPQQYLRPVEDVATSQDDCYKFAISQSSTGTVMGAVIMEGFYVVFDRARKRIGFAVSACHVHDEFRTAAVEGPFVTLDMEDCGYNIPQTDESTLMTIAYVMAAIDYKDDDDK
T1 sequence (P56817 with tags, fused parts or gaps): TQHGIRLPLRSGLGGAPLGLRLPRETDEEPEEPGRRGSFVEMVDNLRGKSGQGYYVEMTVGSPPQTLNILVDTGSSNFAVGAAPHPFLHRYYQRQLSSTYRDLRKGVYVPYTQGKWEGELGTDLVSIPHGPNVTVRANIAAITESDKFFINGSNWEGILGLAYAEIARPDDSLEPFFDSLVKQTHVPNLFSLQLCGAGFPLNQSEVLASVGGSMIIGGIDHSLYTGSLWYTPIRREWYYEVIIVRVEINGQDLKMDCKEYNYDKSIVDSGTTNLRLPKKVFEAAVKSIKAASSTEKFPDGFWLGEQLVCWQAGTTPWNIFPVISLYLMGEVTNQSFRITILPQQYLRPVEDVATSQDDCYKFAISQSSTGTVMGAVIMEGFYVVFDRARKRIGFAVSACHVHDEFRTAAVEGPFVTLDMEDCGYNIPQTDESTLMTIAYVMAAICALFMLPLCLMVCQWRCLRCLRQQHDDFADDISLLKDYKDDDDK

SMILES | SPR signal showing the binding to BACE1-501 [1] | inhibitory activity on BACE1-465 [2] | inhibition at 10 µM [3] [%] | inhibitory activity on BACE1-454 [4] | inhibitory activity on the recombinant human BACE-1 [5] | inhibition at 10 µM [6] [%]
NCCC1CCc2cc(OCc3ccc(-c4ccccc4)cc3)ccc2C1 (centres unmarked) [Compound I] | – | no inhibitory activity | 37 | no inhibitory activity | no inhibitory activity | 70
CCN(CC)CCC1CCc2cc(OCc3ccc(-c4ccccc4)cc3)ccc2C1 (centres unmarked) [Compound D] | – | no inhibitory activity | 38 | no inhibitory activity | no inhibitory activity | 42

Now from value to molecule:

SPR signal showing the binding to BACE1-501 [1] | inhibitory activity on BACE1-465 [2] | inhibition at 10 µM [3] [%] | inhibitory activity on BACE1-454 [4] | inhibitory activity on the recombinant human BACE-1 [5] | inhibition at 10 µM [6] [%] | SMILES
binding | no inhibitory activity | 37 | no inhibitory activity | no inhibitory activity | 48 | Cc1ccc(-c2ccc(COc3ccc4c(c3)CC[C@@H](CCN(C)C)C4)cc2)cc1 [Compound J]
– | no inhibitory activity | 34 | no inhibitory activity | no inhibitory activity | 31 | C[N+](C)([O-])CC[C@@H]1CCc2cc(OCc3ccc(-c4ccccc4)cc3)ccc2C1 [Compound H]
– | no inhibitory activity | 30 | no inhibitory activity | no inhibitory activity | 29 | CN(C)CC[C@@H]1CCc2cc(OCc3ccc(-c4ccccc4)cc3)ccc2C1 [Compound A]
